Source: patent publication US20160186066A1, “METHODS AND SYSTEMS FOR PROCESSING CELLULOSIC BIOMASS” (priority 2014, published 2016)
Read-outs that look alike come from different tables or passages of the source.

Tests used:
[1] = Extraction of phenols from 1% aqueous solution with toluene or heptane (Examples 5E-5H); conditions: for amount left in / lost to the aqueous layer: Ex 5G, 1% m-cresol solution extracted with toluene; for amount remaining in / lost to the aqueous phase: Ex 5F, 1% MPP in water extracted with heptane
[2] = MIBC re-extraction (step #2) of layer from initial MIBC extraction (Example 4); type: physicochemical
Description: One part of the upper organic-rich upper layer from Example 3 was removed prior to distillation, extracted with one part by weight of MIBC solvent, by shaking for 3 minutes in a vial via mechanical shaker, followed by allowing to phase separate overnight at 25° C.
Extraction efficiency as measured by the partition coefficient K increased with increasing carbon number for the light alcohol. Glycols EG and PG were not extracted.

[3] = 3 min
Description: (§1) The reaction product mixture was extracted with one part of by weight solvent, with mixing for a minimum of three minutes, followed by phase separation overnight at 25° C.

[4] = Solubility of MPP in deionized water (turbidity); type: physicochemical; conditions: 1 wt % solution, room temperature
[5] = Comparison of extraction solvents on simulated aqueous reaction product mixture (Examples 5A-5D)
Description: as §1

**Q.** With `Cc1cccc(O)c1` [cresol, meta-cresol] as the molecule, how does the “amount left in / lost to the aqueous layer” value [1] read?
**A.** 0.05 wt %

**Q.** With `CC(O)CO` (stereo not drawn) [PG, 1,2-propylene glycol] as the molecule, how does the “Extr #2 % extract” value [2] read?
**A.** not extracted

**Q.** For `OCCO` [EG, ethylene glycol], which “Extr #2 % extract” value [2] is on record?
**A.** not extracted

**Q.** Which “oil/water partition coefficient of extraction solvent components” value [3] does the source give for `CC(C)CC(C)O` (stereo not drawn) [MIBC, methylisobutylcarbinol] here?
**A.** 48

**Q.** Which results are given for `CCCc1ccc(O)c(OC)c1` [MPP, 2-methoxy-4-propylphenol]?
**A.** solubility in deionized water (turbidity) [4]: only partial solubility; partition coefficient, weight percent in organic layer extract vs. lower layer aqueous fraction ([1]; Ex 5E, 1 wt % MPP in water extracted with one part toluene): 161.7; amount remaining in / lost to the aqueous phase [1]: 0.08 wt %; partition coefficient for distribution of extraction solvent between organic and aqueous layers ([5]; Ex 5B, MPP as extraction solvent): 612; oil/water partition coefficient of extraction solvent components ([5]; Ex 5C, MPP/MIBC mixture as extraction solvent): 462

**Q.** Which results are given for `CCCCCCC` [heptane]?
**A.** amount remaining in / lost to the aqueous phase [1]: 0.07 wt %; lost to the aqueous layer ([1]; Ex 5H, 1% m-cresol solution extracted with heptane): 0.015%

**Q.** Which “amount left in / lost to the aqueous layer” value [1] does the source give for `Cc1ccccc1` [toluene] here?
**A.** 0.04 wt %
